Reference: US8865776B2, “Use of low molecular weight amino alcohols in ophthalmic compositions” (Alcon Research, Ltd., priority 1996, dated 2014)

Test system: S. marcescens
Assay: Anti-microbial activity, log reduction of survivors after inoculation
Assay type: cell-based
Details: saline solution with 1.2% amino alcohol, 0.3% sodium chloride, 0.05% disodium edetate, pH 7.4
Experimental: The antibacterial activity of the above-described saline solutions against S. marcescens was evaluated. The formulations were evaluated by inoculating 20 ml of each solution with 0.1 ml of a microbial suspension. The final concentration was 10^6 colony forming units (“CPUs”) per ml. At each time point, pour plates of SCDA were prepared containing diluted aliquots of the various test samples. The bacteria and yeast plates were incubated at 30° to 35° C. for 2 to 3 days. The mold plates were incubated at 20° to 25° C. for five days. Following the colony incubation period, the number of CFUs were counted and the log reduction of the CFUs relative to the starting amount was calculated. The anti-microbial activity of the formulations against S. marcescens and P. aeruginosa was evaluated.

| Structure (SMILES) | Log Reduction of Survivors (6 hours) [log] | Log Reduction of Survivors (24 hours) [log] |
| --- | --- | --- |
| CCC(N)(CO)CO [AEPD, 2-amino-2-ethyl-1,3-propanediol] | 0.0 | 0.7 |
| CC(C)(N)CO [AMP, 2-amino-2-methyl-1-propanol] | 0.1 | 0.5 |
| CC(N)(CO)CO [AMPD, 2-amino-2-methyl-1,3-propanediol] | 0.0 | 0.0 |
| OCCN1CCN(CCO)CC1 [BHP, 1,4-Bis(2-hydroxyethyl)-piperazine, reference compound] | 0.1 | 0.1 |
| CN(C)C(C)(C)CO [DMAMP, 2-dimethylamino-methyl-1-propanol] | 0.0 | 0.7 |
